Reference: patent publication US4009166A, “Pyrido(2,3-d) pyrimidinones” (Hisamitsu Pharmaceutical Co., Inc., priority 1974, dated 1977)
Structures can show the parent of a compound that is named as a salt. Where two headings read alike, the source gives them in different places.

What was measured:
dd-strain male mice = settings: deaths 72 hours after administration
Method: The lethal dose was estimated from the death of animals 72 hours after administration.

[1] = tested on: carrageenin edema in Wistar-strain male rats; assay: Anti-inflammatory effect (carrageenin edema of the hind paw); type: in vivo; settings: for inhibition in vivo at 50 mg/kg / inhibition in vivo at 10 mg/kg: Rattus norvegicus, po; for inhibition in vivo at 50 mg/kg: read-out: anti-inflammatory effect dose(mg/kg) 50 (inhibition percentage of carrageenin edema); for inhibition in vivo at 10 mg/kg: read-out: anti-inflammatory effect dose(mg/kg) 10 (inhibition percentage of carrageenin edema)
Method: 2. Anti-inflammatory effect
A group of five Wistar-strain male rats (100-150 g) were orally administered with each test compound suspended in 0.5% tragacanth-saline solution. After 30 minutes 0.5-1.0% carrageenin suspended in the water for injection was injected subcutaneously to a hind paw. After 3 hours the carrageenin edema was measured by volume and the inhibition percentage was determined with respect to the results for the control animals. The inhibition percentages were shown with the notations as follows: […]

[2] = tested on: writhing syndrome in dd-strain male mice; assay: Analgetic effect (acetic acid writhing syndrome); type: in vivo; settings: Mus musculus, po, orally, 0.6% acetic acid writhing, Litchfield-Wilcoxon, read-out: analgetic effect ED50 (95 % C.L.)
Method: 3. Analgetic effect Each test compound suspended in 0.5% tragacanth-saline solution was orally administered to dd-strain male mice (18-20 g). After one hour 0.6% acetic acid solution was intraperitoneally injected in a volume of 0.1 ml/10 g.

[3] = tested on: righting reflex of dd-strain male mice; assay: Central nervous system depressive effect (disappearance of righting reflex); type: in vivo; settings: Mus musculus, ip, read-out: C N S depressive effect (dose required for the disappearance of righting reflex)
Method: 4. Central nervous system depressive effect
Each test compound suspended in 0.5% tragacanth-saline solution was injected intraperitoneally to dd-strain male mice (16-24 g). The disappearance of righting reflex was observed under noiseless circumstances. The dose required for the disappearance of righting reflex is indicated with the following notations: […]

[4] = 50 mg/kg orally, rats, edema volume 3 hours after carrageenin
[5] = 10 mg/kg orally, rats, edema volume 3 hours after carrageenin

| Compound | acute toxicity i.p. (lethal dose) (dd-strain male mice) [mg/kg] | inhibition in vivo at 50 mg/kg [1, 4] [%] | ED50 [2] [mg/kg] | minimal effective dose ([3]; intraperitoneally, mice) [mg/kg] | acute toxicity p.o. (lethal dose) (dd-strain male mice) [mg/kg] | inhibition in vivo at 10 mg/kg [1, 5] [%] | anti-inflammatory effect dose(mg/kg) 10 (inhibition percentage of carrageenin edema) [1, 5] | inhibition in vivo at 10 mg/kg ([1]; 3 h) [%] | inhibition in vivo at 50 mg/kg ([1]; 3 h) [%] | minimal effective dose [3] [mg/kg] |
| --- | --- | --- | --- | --- | --- | --- | --- | --- | --- | --- |
| CCN1CN(c2cccc(Br)c2)c2ncccc2C1=O [drawing 121/C2 H5] | > 1000 | 31 to 45 | > 100 | 30 to 100 | – | – | – | – | – | – |
| CCCN1Cc2cccnc2N(c2cccc(Br)c2)C1=O [drawing 134/CH2 CH2 CH3] | – | 46 to 60 | 2.65 | 3 to 10 | < 2000 | 46 to 60 | – | – | – | – |
| CCN1Cc2cccnc2N(c2ccc(Cl)cc2)C1=O [drawing 133/C2 H5] | – | 46 to 60 | 49 | < 3 | – | – | + ++ | – | – | – |
| COCN1Cc2cccnc2N(c2cccc(C(F)(F)F)c2)C1=O [drawing 135/CH2 OCH3] | – | 31 to 45 | 8.1 | 10 to 30 | – | – | – | – | – | – |
| CN1CN(c2cccc(C(F)(F)F)c2)c2ncccc2C1=O [drawing 122/CH3] | – | < 15 | – | – | – | 16 to 30 | – | – | – | – |
| CN1Cc2cccnc2N(c2ccccc2Cl)C1=O [drawing 130/CH3] | – | 16 to 30 | 44 | 30 to 100 | – | – | – | – | – | – |
| COCN1CN(c2cccc([N+](=O)[O-])c2)c2ncccc2C1=O [drawing 123/CH2 OCH3 . HCl] | – | 46 to 60 | 2.7 | – | < 2000 | 46 to 60 | – | – | – | – |
| CN1C(=O)CN=C(c2ccccc2)c2cc(Cl)ccc21 [diazepam, reference compound] | – | – | – | – | – | – | – | < 15 | 16 to 30 | 30 to 100 |
| Cc1ccccc1-n1c(C)nc2ccccc2c1=O [methaqualone, reference compound] | – | – | – | – | – | – | – | – | – | 10 to 30 |
| CCN1Cc2cccnc2N(c2ccc(F)cc2)C1=O [drawing 129/C2 H5] | – | 46 to 60 | 4.9 | 10 to 30 | – | 46 to 60 | – | – | – | – |
| CCCCC1C(=O)N(c2ccccc2)N(c2ccccc2)C1=O [phenylbutazone, reference compound] | – | 31 to 45 | 290 | 300 to 1000 | – | < 15 | – | – | – | – |
| CN1CN(c2cccc(Br)c2)c2ncccc2C1=O [drawing 121/CH3] | > 1000 | < 15 | > 100 | 30 to 100 | – | – | – | – | – | – |
| O=C(O)c1ccccc1Nc1cccc(C(F)(F)F)c1 [flufenamic acid, reference compound] | 300 to 1000 | 16 to 30 | 180 | > 1000 | – | < 15 | – | – | – | – |
| CCN1CN(c2cccc([N+](=O)[O-])c2)c2ncccc2C1=O [drawing 123/C2 H5] | 1000 | > 61 | 1.95 | 30 to 100 | 2000 | 31 to 45 | – | – | – | – |
| COCN1CN(c2cccc(Cl)c2)c2ncccc2C1=O [drawing 119/CH2 OCH3] | – | 16 to 30 | > 100 | – | – | 16 to 30 | – | – | – | – |
| C=CCN1Cc2cccnc2N(c2cccc(Cl)c2)C1=O [drawing 132/CH2 CHCH2] | – | 46 to 60 | 1.2 | 3 to 10 | – | 46 to 60 | – | – | – | – |
| CC(C)N1CN(c2cccc([N+](=O)[O-])c2)c2ncccc2C1=O | > 1000 | 46 to 60 | 4.7 | 100 to 300 | < 2000 | 46 to 60 | – | – | – | – |
| CN1Cc2cccnc2N(c2cccc(Cl)c2)C1=O [drawing 132/CH3, 1-(m-chlorophenyl)-3-methyl-2-oxo-1,2,3,4-tetrahydropyrido[2,3-d]pyrimidine] | – | > 61 | 13 | < 3 | – | 46 to 60 | – | – | – | – |
| CCN1Cc2cccnc2N(c2cccc(C(F)(F)F)c2)C1=O [drawing 135/C2 H5, 1-(m-trifluoromethylphenyl)-3-ethyl-2-oxo-1,2,3,4-tetrahydropyrido[2,3-d]pyrimidine] | – | 46 to 60 | 6.3 | 3 to 10 | – | 31 to 45 | – | – | – | – |
| CCN1Cc2cccnc2N(c2ccc(Cl)c(Cl)c2)C1=O [drawing 137/C2 H5] | – | 46 to 60 | 1.3 | < 3 | – | 46 to 60 | – | – | – | – |
| COCN1Cc2cccnc2N(c2cccc(Cl)c2)C1=O [drawing 132/CH2 OCH3] | – | > 61 | 1.6 | 3 to 10 | – | 46 to 60 | – | – | – | – |
| O=C1N(CCF)Cc2cccnc2N1c1ccc(Cl)c(Cl)c1 [drawing 137/CH2 CH2 F] | – | – | 1 | 3 to 10 | – | > 61 | – | – | – | – |
| CC(C)N1CN(c2cccc(Cl)c2)c2ncccc2C1=O | – | 31 to 45 | > 100 | – | – | 16 to 30 | – | – | – | – |
| CN1Cc2cccnc2N(c2ccccc2)C1=O [drawing 126/CH3] | – | 46 to 60 | 13 | 3 to 10 | – | 31 to 45 | – | – | – | – |
| O=C(O)CN1Cc2cccnc2N(c2cccc(C(F)(F)F)c2)C1=O [drawing 135/CH2 COOH] | > 1000 | – | > 100 | > 1000 | > 2000 | – | – | – | – | – |
| CC(C)N1Cc2cccnc2N(c2cccc(F)c2)C1=O | – | > 61 | 4.5 | 3 to 10 | – | 31 to 45 | – | – | – | – |
| CCN1Cc2cccnc2N(c2cccc(F)c2)C1=O [drawing 127/C2 H5] | – | > 61 | 4.4 | < 3 | – | > 61 | – | – | – | – |
